Experimental data taken from PMC11088877, “AMP-activated protein kinase can be allosterically activated by ADP but AMP remains the key activating ligand” (Biochemical Journal, 2024).
Values joined by “and” are separate entries in the source; they are usually repeats but may differ in a detail not shown here. Equal values may be shown once.

Experiments:
[1] = biological target: T1, human α2β2γ1 complex, CBS1 mutant (L129D/V130D) (Homo sapiens, UniProt P54619+P54646, L129D/V130D); test: Allosteric activation of CBS1 mutant human α2β2γ1 AMPK complex; type: biochemical
T1 construct: made in house; host or cells: Escherichia coli
T1 sequence (P54619 whole entry L129D/V130D): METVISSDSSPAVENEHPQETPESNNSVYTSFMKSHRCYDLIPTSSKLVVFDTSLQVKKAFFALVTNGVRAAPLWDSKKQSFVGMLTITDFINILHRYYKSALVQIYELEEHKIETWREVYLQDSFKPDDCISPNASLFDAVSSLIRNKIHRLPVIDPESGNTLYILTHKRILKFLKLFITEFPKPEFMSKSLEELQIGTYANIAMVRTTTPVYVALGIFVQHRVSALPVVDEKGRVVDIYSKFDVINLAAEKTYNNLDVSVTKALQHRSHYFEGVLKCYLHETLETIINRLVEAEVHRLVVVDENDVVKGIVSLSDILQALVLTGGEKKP
T1 sequence (P54646 whole entry): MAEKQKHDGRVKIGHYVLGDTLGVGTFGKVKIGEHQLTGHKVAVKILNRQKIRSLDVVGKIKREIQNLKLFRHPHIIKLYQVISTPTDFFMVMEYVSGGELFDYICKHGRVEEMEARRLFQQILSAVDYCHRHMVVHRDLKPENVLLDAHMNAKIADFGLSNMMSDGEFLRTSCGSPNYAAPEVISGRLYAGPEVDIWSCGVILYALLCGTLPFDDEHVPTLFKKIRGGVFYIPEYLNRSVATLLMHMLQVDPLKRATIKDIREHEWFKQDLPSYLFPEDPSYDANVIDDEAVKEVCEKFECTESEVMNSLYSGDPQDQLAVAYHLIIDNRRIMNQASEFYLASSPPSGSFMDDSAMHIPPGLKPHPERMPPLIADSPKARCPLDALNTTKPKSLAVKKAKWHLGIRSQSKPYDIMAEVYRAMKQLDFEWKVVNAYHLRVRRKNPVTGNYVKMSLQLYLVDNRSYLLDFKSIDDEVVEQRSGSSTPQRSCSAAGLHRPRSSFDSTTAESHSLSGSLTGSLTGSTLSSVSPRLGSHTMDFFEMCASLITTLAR
T1 sequence (O43741 whole entry partner): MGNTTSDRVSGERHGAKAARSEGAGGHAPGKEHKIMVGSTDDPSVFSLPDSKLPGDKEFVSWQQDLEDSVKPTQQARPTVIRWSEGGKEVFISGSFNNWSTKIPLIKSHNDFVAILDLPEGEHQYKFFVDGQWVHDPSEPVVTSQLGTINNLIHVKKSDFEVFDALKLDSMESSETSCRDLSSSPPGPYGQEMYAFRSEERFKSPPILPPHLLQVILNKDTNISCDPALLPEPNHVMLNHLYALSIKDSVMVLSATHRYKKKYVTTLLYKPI
Text: To study allosteric activation with a more well-defined AMPK complex, and to study the effects of mutations in individual adenine nucleotide-binding sites on the γ subunit, we expressed a human α2β2γ1 complex in Escherichia coli and purified it utilizing the polyhistidine tag at the N-terminus of the α2 subunit. […] However, it had not been co-expressed with an N-myristoyl transferase so would not have been N-myristoylated on the β2 subunit. The complex was expressed not only with the WT γ1 sequence but also with mutations affecting hydrophobic residues previously shown to be involved in binding of the adenine moieties of nucleotides at CBS1 (L129D/V130D), CBS3 (V276G/L277G) and CBS4 (I312G). All four complexes co-purified as heterotrimeric 1:1:1 complexes as expected, and were phosphorylated and activated equally well either by CaMKK2 or the LKB1: STRADα:MO25α complex (Supplementary Figure S2). For the studies described below we phosphorylated Thr172 using a GST-tagged CaMKK2 and repurified AMPK using size exclusion chromatography and a glutathione-Sepharose column, which remove CaMKK2.
Figure 4. Allosteric activation of WT and mutant human α2β2γ1 AMPK complex by AMP and ADP at three different concentrations of ATP. The α2β2γ1 complex was phosphorylated on Thr172 prior to assay using CaMKK2. The γ1 subunit was either (A/E): WT; (B/F): a CBS1 mutant (L129D/V130D); (C/G): a CBS3 mutant (V276G/L277G); (D/H): a CBS4 mutant (I312G). Results are means of duplicate assays ± SD; error bars are not shown if they were smaller than the symbols used for mean values. Assays and curve fitting were as in Figure 1 at either 0.2 mM (left panels) or 5 mM (right panels) ATP. Best-fit values for all parameters used to generate the curves are listed in Supplementary Table S1.
Sources of antibodies were as described: pThr172 (AMPK-α: Cell Signaling Technologies, Danvers, MA, U.S.A., Cat# 2535), AMPK-α2 [22]. Rat liver AMPK was purified as described previously. Plasmid encoding human (His)6-tagged AMPK (α2β2γ1, bacterially expressed) generated as in [23], was a gift from AstraZeneca, Cambridge, U.K. The L129D/V130D (CBS1), V276G/L277G (CBS3) and I312G (CBS4) mutations in the α2β2γ1 complex were generated using the Quikchange II site-directed mutagenesis kit (Agilent Technologies) and confirmed by DNA sequencing. Human GST-tagged α2 kinase domain (1–310), LKB1:STRAD-α:MO25-α complexes, GST-tagged CaMKK2 [26], and PPM1A (PP2Cα) were produced as described. Bacterially expressed heterotrimers were activated by phosphorylation of Thr172 by GST-tagged CaMKK2 in the presence of ATP, and CaMKK2 was subsequently removed by passage through glutathione-Sepharose. Human GST-tagged α2 kinase domain was activated in a similar manner except that human (His)6-tagged LKB1:STRAD-α:MO25-α complex was used and removed after activation via passage through a His-Trap column. Recombinant human 5′-nucleotidase, CD73, Cat # 5795-EN-01, was from R&D systems (Minneapolis, MN, U.S.A.).
AMPK assays measured the transfer of radioactivity from [γ-^33P]ATP to a peptide substrate, which was separated from unreacted ATP by binding to P81 paper. This assay was described previously except that we used [γ-^33P] rather than [γ-^32P]ATP. In some assays (specified in Figure legends) the concentration of ATP was increased from 0.2 to 1 or 5 mM ATP, with MgCl2 concentrations maintained at a constant 4.8 mM excess above the concentration of ATP [19]. Where allosteric activation by AMP or ADP was being studied, we used the SAMS peptide as substrate. For all other assays the AMARA peptide was used.

[2] = biological target: T2, human α2β2γ1 complex, CBS3 mutant (V276G/L277G) (Homo sapiens, UniProt P54619+P54646, L277G/V276G); test: AMPK activation and Thr172 phosphorylation by the LKB1 complex, CBS3 mutant; type: biochemical; conditions: 300 µM nucleotide, 200 µM ATP
T2 construct: made in house; host or cells: Escherichia coli
T2 sequence (P54619 whole entry V276G/L277G): as the sequence (P54619 whole entry L129D/V130D) above, with D129L, D130V, V276G, L277G counted along it
T2 sequence (P54646 whole entry): as the sequence (P54646 whole entry) above
T2 sequence (O43741 whole entry partner): as the sequence (O43741 whole entry partner) above
Method: The relative roles of the three CBS sites in the other two mechanisms of activation of AMPK by AMP or ADP, i.e. promotion of Thr172 phosphorylation by LKB1, and protection against Thr172 dephosphorylation by protein phosphatases, have not been examined previously. As expected, incubation of the α2β2γ1 AMPK complex with a fixed, limiting amount of purified LKB1:STRADα:MO25α complex in the presence of 200 µM Mg.ATP^2− caused a large degree of activation (Figure 5A) and phosphorylation (Figure 5B) of AMPK (unphosphorylated α2β2γ1 complex), which were stimulated more than 2-fold by 300 µM AMP and 1.6-fold by 300 µM ADP.
Figure 5. Effects of AMP or ADP on AMPK activation and Thr172 phosphorylation by the LKB1:STRADα:MO25α complex. Unphosphorylated human α2β2γ1 complexes (WT, or with L129D/V130D, V276G/L277G or I312G mutations affecting CBS1, CBS3 or CBS4 respectively) were incubated with ATP and a fixed concentration of the LKB1:STRADα:MO25α complex in the presence or absence of AMP or ADP (both 300 µM), as described in the Materials and methods section. After the incubation aliquots were withdrawn for (A) AMPK assay or (B) Western blots. […] For (B), due to a limit on the number of lanes that could be run on one gel, single replicates from the triplicate assays were analysed. […]

Compound | Activation (maximal) ([1]; 0.2 mM ATP) | IC50 ([1]; 0.2 mM ATP) [µM] | Activation (maximal) ([1]; 5.0 mM ATP) | effect of nucleotide on activation/phosphorylation by LKB1 in the mutant [2] | EC50 ([1]; 0.2 mM ATP) [µM] | IC50/EC50 ([1]; 0.2 mM ATP) | EC50 ([1]; 5.0 mM ATP) [µM] | IC50 ([1]; 5.0 mM ATP) [µM] | IC50/EC50 ([1]; 5.0 mM ATP)
Nc1ncnc2c1ncn2[C@@H]1O[C@H](COP(=O)(O)OP(=O)(O)O)[C@@H](O)[C@H]1O [ADP] | did not cause allosteric activation and none | 1000 | abolished allosteric activation and essentially abolished allosteric activation and none | abolished |  |  |  |  | 
Nc1ncnc2c1ncn2[C@@H]1O[C@H](COP(=O)(O)O)[C@@H](O)[C@H]1O [AMP] | 2.4 (2.3-2.4) fold | 3400 | 2.4 fold and 2.3 fold | abolished | 1.6 | 2100 | 19 | 52000 | 2700
